Values of other authors, collected in US20180055813A1, “COMPOSITIONS AND METHODS FOR TREATING ATRIAL FIBRILLATION” (Edge Therapeutics, Inc., priority 2016, published 2018).
Like-named read-outs stand apart in the source and are kept apart here. Blank lines part the entries; values can stand above or below the molecule they belong to.

Legend:
[1] = tested on: high-plateau action potentials
[2] = tested on: voltage-dependent sodium channels; conditions: relative to phenytoin
[3] = tested on: R-type calcium current
[4] = target: N-type calcium current (Homo sapiens, UniProt Q00975); conditions: at 300 nM to 500 nM
Sequence of N-type calcium current (Q00975 whole entry): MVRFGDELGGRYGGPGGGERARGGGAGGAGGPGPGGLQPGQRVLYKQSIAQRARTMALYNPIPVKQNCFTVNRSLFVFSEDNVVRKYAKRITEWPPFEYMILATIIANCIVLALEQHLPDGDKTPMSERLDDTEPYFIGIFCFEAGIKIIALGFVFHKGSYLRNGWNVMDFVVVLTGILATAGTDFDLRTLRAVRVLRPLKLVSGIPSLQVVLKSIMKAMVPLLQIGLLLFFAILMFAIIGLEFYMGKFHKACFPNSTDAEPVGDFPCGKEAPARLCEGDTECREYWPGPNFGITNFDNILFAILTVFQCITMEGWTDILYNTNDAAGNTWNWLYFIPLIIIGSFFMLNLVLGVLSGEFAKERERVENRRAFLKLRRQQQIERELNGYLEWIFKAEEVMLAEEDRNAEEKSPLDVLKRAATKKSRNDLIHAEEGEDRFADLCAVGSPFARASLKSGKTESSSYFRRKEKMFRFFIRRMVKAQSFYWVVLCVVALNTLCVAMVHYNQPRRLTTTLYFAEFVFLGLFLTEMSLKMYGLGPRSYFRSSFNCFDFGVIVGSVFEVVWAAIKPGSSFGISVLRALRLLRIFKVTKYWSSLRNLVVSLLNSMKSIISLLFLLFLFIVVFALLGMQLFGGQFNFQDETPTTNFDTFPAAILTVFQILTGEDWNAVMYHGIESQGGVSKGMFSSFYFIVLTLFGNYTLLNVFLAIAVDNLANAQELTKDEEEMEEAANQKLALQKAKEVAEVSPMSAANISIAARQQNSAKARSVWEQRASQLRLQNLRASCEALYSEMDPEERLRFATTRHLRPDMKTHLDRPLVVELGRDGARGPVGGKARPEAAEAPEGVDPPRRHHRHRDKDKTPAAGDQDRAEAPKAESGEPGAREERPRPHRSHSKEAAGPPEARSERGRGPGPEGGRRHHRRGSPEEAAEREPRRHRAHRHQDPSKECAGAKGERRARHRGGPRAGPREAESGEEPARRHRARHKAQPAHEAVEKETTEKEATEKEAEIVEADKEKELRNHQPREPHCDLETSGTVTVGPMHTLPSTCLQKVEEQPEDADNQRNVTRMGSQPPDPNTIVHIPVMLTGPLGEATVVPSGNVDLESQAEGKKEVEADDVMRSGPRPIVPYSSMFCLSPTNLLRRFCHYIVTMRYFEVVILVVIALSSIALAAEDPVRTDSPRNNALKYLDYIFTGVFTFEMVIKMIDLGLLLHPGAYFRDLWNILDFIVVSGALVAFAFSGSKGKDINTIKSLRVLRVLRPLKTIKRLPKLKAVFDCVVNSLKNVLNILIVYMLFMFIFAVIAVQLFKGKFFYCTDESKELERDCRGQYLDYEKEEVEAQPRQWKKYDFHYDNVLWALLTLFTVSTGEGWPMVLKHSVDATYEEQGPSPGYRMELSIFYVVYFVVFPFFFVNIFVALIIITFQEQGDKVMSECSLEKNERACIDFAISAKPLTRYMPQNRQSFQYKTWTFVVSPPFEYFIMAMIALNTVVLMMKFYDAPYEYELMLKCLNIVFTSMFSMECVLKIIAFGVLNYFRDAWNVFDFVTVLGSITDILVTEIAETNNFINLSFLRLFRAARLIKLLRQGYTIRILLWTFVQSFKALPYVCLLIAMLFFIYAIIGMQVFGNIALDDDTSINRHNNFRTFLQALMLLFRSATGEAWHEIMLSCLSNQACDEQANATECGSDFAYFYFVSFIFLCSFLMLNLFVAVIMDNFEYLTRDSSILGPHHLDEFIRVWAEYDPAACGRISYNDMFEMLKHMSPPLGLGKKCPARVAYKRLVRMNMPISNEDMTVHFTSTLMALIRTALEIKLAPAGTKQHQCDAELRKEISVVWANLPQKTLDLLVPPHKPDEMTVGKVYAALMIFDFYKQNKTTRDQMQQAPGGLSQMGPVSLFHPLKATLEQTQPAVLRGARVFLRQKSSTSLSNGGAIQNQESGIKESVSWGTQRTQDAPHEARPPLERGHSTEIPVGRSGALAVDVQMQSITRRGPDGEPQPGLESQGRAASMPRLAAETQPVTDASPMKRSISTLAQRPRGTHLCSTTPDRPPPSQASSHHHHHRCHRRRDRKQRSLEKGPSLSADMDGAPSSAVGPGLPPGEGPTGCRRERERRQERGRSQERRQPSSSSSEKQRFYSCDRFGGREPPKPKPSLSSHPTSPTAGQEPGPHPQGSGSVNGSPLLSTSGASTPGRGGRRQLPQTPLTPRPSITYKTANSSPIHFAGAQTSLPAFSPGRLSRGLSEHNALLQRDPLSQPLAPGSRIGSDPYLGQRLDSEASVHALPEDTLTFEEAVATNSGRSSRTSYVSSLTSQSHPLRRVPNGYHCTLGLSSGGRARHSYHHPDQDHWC

[5] = tested on: K+ and Na+ currents, and L, P/Q and T-type calcium currents
[6] = for incidence of postoperative AF: AFIST I, patients >60 years
[7] = phase III clinical trials, compared with placebo

Molecule: CCOC(=O)[C@H](CCc1ccccc1)N[C@@H](C)C(=O)N1CCC[C@H]1C(=O)O [enalapril]
relative risk reduction for the development of AF (compared to placebo): 78%

Molecule: Cc1oc2ccccc2c1Cc1cc(I)c(OCC(=O)O)c(I)c1 [KB130015, 2-methyl-3-(3,5-diiodo-4-carboxymethoxybenzyl)benzofuran]
QT lengthening / prolongation of high-plateau action potentials [1]: devoid of QT lengthening effects

faster rate of binding to depolarized channels compared to phenytoin [2]: 5 fold
Molecule: NC(=O)N1c2ccccc2C=Cc2ccccc21 [carbamazepine]
lower affinity for depolarized channels compared to phenytoin [2]: 3 fold

Molecule: CCCCC1=NC2(CCCC2)C(=O)N1Cc1ccc(-c2ccccc2-c2nnn[nH]2)cc1 [irbesartan]
prevention of recurrence of AF (irbesartan plus amiodarone versus amiodarone alone): more effectively than amiodarone alone

Molecule: SNX-482
block of R-type calcium current ([3]; neurohypophysial nerve endings, 40 nM concentration): blocks
effect on R-type current ([3]; preparations of the neuronal cell body, retinal ganglion cells and hippocampal pyramidal cells): no significant effect
N-type calcium current blocked [4]: 30-50%
effect on K+ and Na+ currents, and L, P/Q and T-type calcium currents [5]: no effect

Molecule: CCCCc1oc2ccccc2c1C(=O)c1cc(I)c(OCCN(CC)CC)c(I)c1 [amiodarone]
incidence of postoperative AF, patients ([6]; 1-week pre-operative oral regimen, placebo 53%): 25%
incidence of postoperative AF ([6]; amiodarone alone): 35%
incidence of postoperative AF ([6]; amiodarone with concomitant postoperative β-blockers): 16%
incidence of postoperative AF, patients ([6]; postoperative intravenous treatment, placebo 47%): 35%
incidence of postoperative AF, patients ([6]; treatment throughout the peri-operative period, placebo 25%): 16%

Molecule: CCCCc1oc2ccc(NS(C)(=O)=O)cc2c1C(=O)c1ccc(OCCCN(CCCC)CCCC)cc1 [dronedarone, n-(2-butyl-3-(4-(3-dibutylaminopropoxy)-benzoyl)benzofuran-5-yl)-methanesulfonamide]
lowering of risk of AF relapse [7]: 25%
